Assay results taken from publication PMC4747952, “Development of TASP0410457 (TASP457), a novel dihydroquinolinone derivative as a PET radioligand for central histamine H3 receptors” (EJNMMI Research, 2016).

Legend:
[1] = Lipophilicity measurement (Log D); assay type: physicochemical; settings: pH 7.4; octanol and phosphate buffer (pH7.4); read-out: Log D7.4
Method: Lipophilicity measurement
Log D was determined by partitioning each compound between an octanol and phosphate buffer […]
each layer using HPLC with ultraviolet (UV) detection.
Assays for P-glycoprotein-mediated transcellular transport of compounds LLC-GA5-COL300 cells expressing human P-glycoprotein were seeded at a density of 4.5 × 10^5 cells/cm2 onto polycarbonate membrane filters of 12-well cell culture insert plates and cultured at 37°C in a humidified incubator containing 5% CO2 for 3 days. After each cell monolayer was pre-incubated at 37°C for 20 min in Hank’s balanced salt solution containing 10 mM HEPES (HBSS buffer), transcellular transport experiments were initiated by adding the test compound solution to the apical or basal side of the cell culture inserts. HBSS buffer was sampled from the compartment opposite of that spiked with the test compounds at 0.5, 1, 1.5 and 2 h after initiation of the experiments, and concentrations of the test compounds were determined using LC-MS/MS. The apparent permeability coefficient (Papp) of the test compounds was calculated using the following equation:
Papp= dQ/dt / C0 / A Eq. 1, where dQ/dt represents the rate of permeation of the compounds, C0 is the initial concentration of the test compounds ([…]), and A is the area of the monolayer. The efflux ratio (ER) was defined as […]

Serotonin 5-HT1D = experiment: Off-target binding (Cerep); parameters: unit of the concentration uncertain
Source text: (§1) Off-target binding of compounds assessed using an in-house assay (M4) and a commercial battery (all
(§2) others) (Cerep, Celle L'Evescault, France).

Opioid kappa (KOP) = experiment: Off-target binding (Cerep); parameters: unit of the concentration uncertain
Source text: as §1, §2

Glutamate Kainate = experiment: Off-target binding (Cerep); parameters: unit of the concentration uncertain
Source text: as §1, §2

Imidazoline I2 = experiment: Off-target binding (Cerep); parameters: unit of the concentration uncertain
Source text: as §1, §2

Serotonin 5-HT1B = experiment: Off-target binding (Cerep); parameters: unit of the concentration uncertain
Source text: as §1, §2

rat H3R = biological target: T1, rat H3R (Rattus norvegicus, UniProt Q9QYN8); experiment: In vitro binding to H3Rs, rat cerebral cortex membranes, [^3H]N-α-methylhistamine; settings: 1 nM [^3H]N-α-methylhistamine, geometric mean, n = 3, read-out: Affinity for H3Rs Rat, IC50
T1 construct: Rat cerebral cortex and monkey frontal cortex were dissected; from tissue; host or cells: rat cerebral cortex membranes
Method: Rat cerebral cortex and monkey frontal cortex were dissected, homogenized with 50 mM Tris buffer (pH 7.4) containing 5 mM EDTA and Protease Inhibitor Cocktail Tablets (Roche Diagnostics, Indianapolis, IN) and centrifuged at 48,000×g for 15 min at 4 °C. The pellets were then suspended in binding buffer (50 mM Tris containing 5 mM EDTA, pH 7.4) and stored at −80 °C as membrane preparations.
The membrane preparations were thawed and incubated in the binding buffer containing 0.1 % bovine serum albumin, 1 nM [^3H]N-α-methylhistamine (PerkinElmer, Waltham, MA) with various concentrations of a dihydroquinolinone derivative (i.e., test compound) at 25 °C for 1 h. The reaction was terminated by rapid filtration through 96-well GF/C filter plates (PerkinElmer) presoaked with 0.5 % polyethyleneimine (Wako, Osaka, Japan). After washes with ice-cold binding buffer, the plates were dried and filled with Microscint-o (PerkinElmer). The radioactivity retained on the filters was counted using a TopCount NXT (PerkinElmer). Total and nonspecific radioligand binding was determined by reaction without and with 10 μM thioperamide and clobenpropit, respectively. The specific radioligand binding was then calculated by subtracting the nonspecific binding from the total binding. The IC50 value for inhibition of the radioligand binding by the test compound was determined using a nonlinear fit of the concentration-response curve for each test compound using SAS 9.2 (SAS Institute Inc., Cary, NC). Data were expressed as the geometric means of IC50 values from three independent experiments run in duplicate.

[2] = Concentration 10 (unit uncertain)
[3] = Concentration 1 (unit uncertain)

T1 sequence (Q9QYN8 whole entry): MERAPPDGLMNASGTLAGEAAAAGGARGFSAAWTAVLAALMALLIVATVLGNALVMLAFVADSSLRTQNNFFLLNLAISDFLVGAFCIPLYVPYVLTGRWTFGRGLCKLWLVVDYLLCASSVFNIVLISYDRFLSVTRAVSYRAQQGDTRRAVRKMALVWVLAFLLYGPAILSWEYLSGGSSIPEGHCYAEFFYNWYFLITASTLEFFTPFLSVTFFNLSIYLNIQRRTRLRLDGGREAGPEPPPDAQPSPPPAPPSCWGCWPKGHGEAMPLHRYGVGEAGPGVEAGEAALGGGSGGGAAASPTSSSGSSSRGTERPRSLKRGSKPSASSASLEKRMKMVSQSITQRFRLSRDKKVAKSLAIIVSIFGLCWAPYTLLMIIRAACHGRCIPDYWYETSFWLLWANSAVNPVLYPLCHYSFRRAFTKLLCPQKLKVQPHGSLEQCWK

## COc1ccc(N2C(=O)CCc3cc(OC4CCN(C5CCC5)CC4)ccc32)cn1 [TASP0410457, 6-[(1-Cyclobutylpiperidin-4-yl)oxy]-1-(6-methoxypyridin-3-yl)-3,4-dihydroquinolin-2(1H)-one]
[1]
  logD: 1.79
Serotonin 5-HT1D; [2]
  % Inhibition: 17%
Opioid kappa (KOP); [2]
  % Inhibition: -6%
Glutamate Kainate; [2]
  % Inhibition: -12%
Imidazoline I2; [2]
  % Inhibition: 1%
Serotonin 5-HT1B; [2]
  % Inhibition: 25%
Rat H3R
  IC50: 2.34 nM

## COc1ccc(N2C(=O)CCc3cc(OC4CCN(C5CCC5)CC4)ccc32)cc1 [TASP0434988, 6-[(1-cyclobutylpiperidin-4-yl)oxy]-1-(4-methoxyphenyl)-3,4-dihydroquinolin-2(1H)-one]
[1]
  logD: 2.22
Serotonin 5-HT1D; [3]
  % Inhibition: -12%
Opioid kappa (KOP); [3]
  % Inhibition: -12%
Glutamate Kainate; [3]
  % Inhibition: 4%
Imidazoline I2; [3]
  % Inhibition: 16%
Serotonin 5-HT1B; [3]
  % Inhibition: 3%
Rat H3R
  IC50: 0.783 nM

## COc1ccc(N2C(=O)CCc3cc(OCCCN4CCC[C@H]4C)ccc32)cc1 [TASP0390136, 1-(4-methoxyphenyl)-6-{3-[(2R)-2-methylpyrrolidin-1-yl]propoxy}-3,4-dihydroquinolin-2(1H)-one]
[1]
  logD: 1.36
Serotonin 5-HT1D; [2]
  % Inhibition: 5%
Opioid kappa (KOP); [2]
  % Inhibition: 11%
Glutamate Kainate; [2]
  % Inhibition: -11%
Imidazoline I2; [2]
  % Inhibition: 23%
Serotonin 5-HT1B; [2]
  % Inhibition: -25%
Rat H3R
  IC50: 2.74 nM
